From patent US10550118B2, “JAK inhibitors containing a 4-membered heterocyclic amide” (THERAVANCE BIOPHARMA R&D IP, LLC, priority 2017, dated 2020)

Tested on: IFNγ induced CXCL10 and CXCL9 secretion in EpiAirway tissue cultures
Assay: Inhibition of IFNγ induced chemokines CXCL9 and CXCL10 in human 3D airway cultures
Assay type: cell-based
Details: 192 h, day 8, ±STDV
Procedure: Assay 7: Inhibition of IFNγ and IL-27 Induced Chemokines CXCL9 and CXCL10 in Human 3D Airway Cultures
EpiAirway tissue cultures were obtained from Mattek (AIR-100). Cultures were derived from asthmatic donors. In a cell culture insert, human derived tracheal/bronchial epithelial cells were grown and differentiated on a porous membrane support, allowing an air-liquid interface with warmed culture medium below the cells and a gaseous test atmosphere above. Tissues were cultured in maintenance media (Mattek, AIR-100-MM) in a 37° C., 5% CO2 humidified incubator. Four donors were tested. On Day 0, tissue cultures were treated with test compounds at 10 μM, 1 μM and/or 0.1 μM. Compounds were diluted in dimethyl sulfoxide (DMSO, Sigma) to a final concentration of 0.1%. DMSO at 0.1% was used as a vehicle control. Test compounds were incubated with cultures for 1 hour at 37° C., 5% CO2, followed by the addition of pre-warmed media containing IFNγ (R&D Systems) or IL-27 (R&D Systems) at a final concentration at 100 ng/ml. Tissue cultures were maintained for 8 days. Media was replaced every 2 days with fresh media containing compounds and IFNγ or IL-27. […] Data is expressed as % Inhibition+/−standard deviation (±STDV). Percent inhibition was determined by compound inhibitory potency against IFNγ or IL-27 induced CXCL10 or CXCL9 secretion compared to vehicle treated cells. […]

Question: Which inhibition at 1 µM does the source give for `CCc1cc(O)c(F)cc1-c1ccc2c(-c3nc4c([nH]3)CN(C(C)C)[C@H](C(=O)N3CC(N(C)C)C3)C4)n[nH]c2c1` [Example 2, (S)-(3-(dimethylamino)azetidin-1-yl)(2-(6-(2-ethyl-5-fluoro-4-hydroxyphenyl)-1H-indazol-3-yl)-5-isopropyl-4,5,6,7-tetrahydro-3H-imidazo[4,5-c]pyridin-6-yl)methanone] here?
Answer: Its inhibition at 1 µM is 65%.
